Measured values from US20150079105A1, “TREATMENT OF ACUTE INFLAMMATION IN THE RESPIRATORY TRACT” (UCL Business PLC, priority 2012, published 2015).
“Also recorded” adds a separate entry of the source.

Key:
Type in all cases: in vivo
[1] = tested on: 151 inflammatory mediators; assay: Low density array (LDA) of 151 inflammatory mediators, lung mRNA of LPS challenged mice; conditions: 5 mg/kg i.p. 30 min after LPS, 3 h
Method: FIG. 7. […] Lungs were removed, snap frozen and homogenised under liquid nitrogen before RNA was isolated and run on a low density gene array consisting of 151 inflammatory markers (A). […] Of these genes the pro-inflammatory cytokines TNF and IL-6, and the neutrophil chemoattractants CXCL1 and CXCL2, in addition to the chemokines CCL2 and CCL7 are further depicted (D). Data were analysed by one way ANOVA with Newman-Keuls Post Hoc test:, **p<0.01, *p<0.05.
In order to identify potential PAR1-regulated cytokine/chemokine candidates involved in LPS-induced ALI, a low density array (LDA) designed to profile 151 inflammatory mediators was used (FIG. 7a, FIG. 9). Total RNA was extracted from pulverised frozen pulverised lung using TRIzol (see manufacture's protocol (Invitrogen)), DNase treated using a DNA free kit (Ambion) and cDNA synthesised from 1 μg RNA/per sample using a Superscript kit (Invitrogen). Expression levels of known inflammatory mediators were analysed in cDNA using Taqman low density array qPCR chips and normalized to 18 s. Transcript data was analysed using the Gene Expression Similarity Suite (Genesis) software^51 and data represented as a heat map following log2 transformation and normalisation. Relative fold-difference in expression was calculated using the ΔΔT method with the saline treated group as the calibrator reference. […] The differential gene expression profile included the upregulation of several genes known to be important for the generation of inflammatory responses, such as TNF, interleukins, CXC chemokines and CC chemokines, including CCL2, CCL3, CCL4, CCL7, CCL22, CXCL1, CXCL2, CXCL10, CXCL13 and CX3CL1.

[2] = tested on: TNF, IL-6, CXCL1, CXCL2, CCL2, CCL7; assay: Cytokine and chemokine protein levels in lung homogenates of LPS challenged mice (Luminex bead array, ELISA); conditions: 5 mg/kg i.p. 30 min after LPS, 3 h
Method: FIG. 8. Mice were killed three hours after LPS (125 μg/kg i.n.) or saline challenge with or without the PAR1 antagonist RWJ-58259 (5 mg/kg) dosed i.p. after 30 min. Lungs were removed and homogenized. Levels of TNF (A), IL-6 (B) CXCL1 (C), and CXCL2 (D) protein were measured in lung homogenates using a Luminex bead array. Protein levels of CCL2 (H) and CCL7 (I) were measured from lung homogenates by ELISA. Mean and sem values of n=5 per group are shown. Data were analysed by one way ANOVA with Newman-Keuls post hoc test: ***p<0.001, **p<0.01, *p<0.05. […]
Cytokine and chemokine levels were measured by ELISA.
In order to confirm the LDA analysis of mRNA expression, the level of protein in lung homogenates was measured.

S. pneumoniae = S. pneumoniae challenge of mice (bacteria-induced ALI and host defense); conditions: 5 mg/kg i.p. after 30 min
Method: FIG. 4. Mice were killed three hours after inoculation with S. pneumoniae (serotype 19, 50 μl/mouse, 5×10^6 CFU/mouse i.n.) with and without the PAR1 antagonist RWJ-58259 (5 mg/kg) dosed therapeutically i.p. after 30 min. Lungs were lavaged (1.5 ml PBS total) and total BAL fluid leukocytes (a) and neutrophils (b) were quantified. S. pneumoniae was recovered from lung homogenates and individual colonies counted (c). Panels show mean values for n=5/group from two separate experiments. Data were analysed by one way ANOVA with Neuman-Keuls Post Hoc test: ***p<0.0001, *p<0.05.
FIG. 5. Mice were killed three hours after inoculation with S. pneumoniae (serotype 2, clinical isolate D39, 50 μl/mouse, 5×10^6 CFU/mouse i.n.) with and without the PAR1 antagonist RWJ-58259 (5 mg/kg) dosed therapeutically i.p. after 30 min. Lungs were lavaged (1.5 ml PBS total) and total BAL fluid leukocytes (A), macrophages (B) and neutrophils (C) were quantified. Bronchoalveolar lavage fluid was collected and levels of thrombin-anti-thrombin (TAT) and serum albumin were quantified by ELISA (D and E). Panels show mean values for n=5/group from two separate experiments. Data were analysed by one way ANOVA with Neuman-Keuls Post Hoc test: ***p<0.0001, *p<0.05.
FIG. 6. Mice were killed three hours after inoculation with S. pneumoniae (serotype 2, clinical isolate D39, 50 μl/mouse, 5×10^6 CFU/mouse i.n.) with and without the PAR1 antagonist RWJ-58259 (5 mg/kg) dosed therapeutically i.p. after 30 min. Lungs were lavaged (1.5 ml PBS total) and bacterial colony forming units (cfu) counted after 3 h (A) and 24 h (B). Bacterial invasive disease was measured by cfu in the lung (C) and spleen (D) after 24 h. Data were analysed by one way ANOVA with Neuman-Keuls Post Hoc test: n.s. not significant. […]
In order to examine the influence of PAR1 during host defense and in a model of bacteria-induced ALI, mice were challenged with S. pneumoniae (5×10^6 CFU/mouse, i.n.), which is the most common infectious agent responsible for ALI. Mice were inoculated with 50 μl S. pneumoniae (serotype 19, 5×10^6 CFU/mouse i.n.). 3 hours later, animals were sacrificed (urethane i.p. […]), endotracheally cannulated and bronchoalveolar lavage performed (1.5 ml, PBS). Total and differential counts were quantified following cytospin and albumin levels measured by ELISA (Bethyl Laboratories Inc, USA).
PAR1 antagonism was also found to decrease the number of BAL macrophages (FIG. 5b). Bronchoalveolar lavage fluid was collected and levels of thrombin-anti-thrombin (TAT) and serum albumin were quantified by ELISA (FIG. 4d, e). […] Panels show mean values for n=5/group from two separate experiments. Data were analysed by one way ANOVA with Neuman-Keuls Post Hoc test: ***p<0.0001, *p<0.05. […]

[3] = serotype 2, D39, after 24 hours
[4] = serotype 19, 5×10^6 CFU/mouse i.n., 3 h

## NCC[C@H](NC(=O)[C@H](Cc1ccc(F)c(F)c1)NC(=O)Nc1ccc2c(CN3CCCC3)nn(Cc3c(Cl)cccc3Cl)c2c1)C(=O)NCc1ccccc1 [RWJ-58259]
[1]
  CCL2 (MCP-1) mRNA expression in lung: decreased
  CCL7 (MCP-3) mRNA expression in lung: decreased
  CXCL1 mRNA expression in lung: unaffected
  CXCL2 mRNA expression in lung: unaffected
  IL-6 mRNA expression in lung: unaffected
  TNF mRNA expression in lung: unaffected
[1]; array of 151 markers
  number of genes (markers) with decreased expression following PAR1 antagonism: 25 genes
[2]
  CCL2 protein level in lung homogenates: decreased
  CCL7 protein level in lung homogenates: decreased
[2]; listed as PAR1 antagonist
  CXCL1 protein level in lung homogenates: unaffected; also recorded: not affected
  CXCL2 protein level in lung homogenates: unaffected; also recorded: not affected
  IL-6 protein level in lung homogenates: did not attenuate; also recorded: not affected
  TNF protein level in lung homogenates: did not attenuate; also recorded: not affected
S. pneumoniae; serotype 2, D39, 3 h
  PAR1 mediated disruption of the alveolar-capillary barrier (TAT and serum albumin in BAL fluid by ELISA): reduce
  number of BAL macrophages: decrease
S. pneumoniae; serotype 2, D39, 24 hours
  S. pneumoniae colony counts recovered from BALF: unaffected
S. pneumoniae; [3]
  bacterial invasive disease, cfu in the lung: unaffected
  bacterial invasive disease, cfu in the spleen: unaffected
S. pneumoniae; serotype 2, D39, after three hours
  S. pneumoniae colony counts recovered from BALF: unaffected
S. pneumoniae; [4]
  neutrophil accumulation (BAL fluid): reduced
  total cellular infiltration (BAL fluid leukocytes): reduced
S. pneumoniae; serotype 19, 3 h
  S. pneumoniae colony counts recovered from whole lung (host defense): unaffected
S. pneumoniae; serotype not stated, 3 h
  BAL fluid serum albumin following S. pneumoniae challenge: decreased
